Experimental data reported in patent US20220370486A1, “COMBINATION TREATMENT OF SYSTEMIC FUNGAL INFECTIONS” (The Board of Trustees of the University of Illinois, priority 2019, published 2022).
Where two headings read alike, the source gives them in different places.

Assays:
[1] = tested on: primary hREC; assay: Toxicity to primary hREC; format: cell-based, human
Text: This key discovery opened a path to the rational development of a non-toxic AmB variant. To probe its predicted role in sterol binding, the hydroxyl group was synthetically deleted at the C2′ position on the mycosamine appendage.
In each case, C2′epiAmB is non-toxic to human red blood cells, primary hREC, mice, and rats up to the highest dose tested.

[2] = UV-Vis and PCA based sterol sponge binding assay; settings: apparent KD, sterol sponge aggregates in vitro
Text: However, an alternative method was developed for reproducible formation of homogenous AmB and C2′epiAmB sterol sponge aggregates in vitro. Using these preparations, a quantitative UV-Vis and Principle Component (PCA) based assay for determining the apparent Kis for the binding of AmB and C2′epiAmB to ergosterol and cholesterol (FIGS. 2A-2D) was developed.

[3] = rat, in vivo
[4] = tested on: C. parapsilosis 1048737; assay: Checkerboard broth microdilution (CLSI); format: cell-based; settings: isolate 1048737; for MIC: single agent
Experimental: (§1) Isolates were tested against varying concentrations of amphotericin B and C2′epiAmB (range, 0.06 to 4 mg/L) and combined with fluconazole (range, 0.12 to 128 mg/L) or ketoconazole (range 0.008 to 8 mg/L) or voriconazole (range, 0.004 to 4 mg/L) using a checkerboard grid design following the Clinical and Laboratory Standards Institute (CLSI) broth microdilution method (M23Ed5).

[5] = tested on: C. parapsilosis ATCC 22019; assay: Checkerboard broth microdilution (CLSI); format: cell-based; settings: isolate ATCC 22019
Experimental: as §1

[6] = tested on: C. krusei ATCC 6258; assay: Checkerboard broth microdilution (CLSI); format: cell-based; settings: isolate ATCC 6258
Experimental: as §1

[7] = tested on: C. tropicalis 1046709; assay: Checkerboard broth microdilution (CLSI); format: cell-based; settings: isolate 1046709
Experimental: as §1

[8] = tested on: C. glabrata 1046695; assay: Checkerboard broth microdilution (CLSI); format: cell-based; settings: isolate 1046695; for MIC: single agent
Experimental: as §1

[9] = tested on: A. fumigatus 1077391; assay: Checkerboard broth microdilution (CLSI); format: cell-based; settings: isolate 1077391
Experimental: as §1

[10] = tested on: A. flavus SC 1085986; assay: Checkerboard broth microdilution (CLSI); format: cell-based; settings: isolate 1085986
Experimental: as §1

[11] = tested on: C. albicans 967374; assay: Checkerboard broth microdilution (CLSI); format: cell-based; settings: isolate 967374
Experimental: as §1

[12] = tested on: F. oxysporum SC 1087597; assay: Checkerboard broth microdilution (CLSI); format: cell-based; settings: isolate 1087597
Experimental: as §1

[13] = tested on: A. fumigatus ATCC MYA-3626; assay: Checkerboard broth microdilution (CLSI); format: cell-based; settings: isolate ATCC MYA-3626; for MIC: single agent
Experimental: as §1

[14] = tested on: A. flavus ATCC 204304; assay: Checkerboard broth microdilution (CLSI); format: cell-based; settings: isolate ATCC 204304
Experimental: as §1

[15] = tested on: C. krusei 975691; assay: Checkerboard broth microdilution (CLSI); format: cell-based; settings: isolate 975691
Experimental: as §1

[16] = tested on: C. albicans; assay: Murine model of invasive candidiasis; format: in vivo, mice
Experimental: Andes, D. et al., Antimicrobial agents and chemotherapy 2001, 45 (3), 922-6. In fact, the PD parameter that best correlates with outcome is Cmax-/MIC. The same was subsequently observed in a pulmonary model of invasive aspergillosis. Wiederhold, N. P. et al., Antimicrobial agents and chemotherapy 2006, 50 (2), 469-73.
A clinical isolate of C. albicans (SN250) was grown and quantified on SDA. For 24 h before infection, the organism was subcultured at 35° C. on SDA slants. A 106CFU/ml inoculum was prepared by placing six fungal colonies into 5 ml of sterile, depyrogenated normal (0.9%) saline warmed to 35° C. Six week-old ICR/Swiss specific-pathogen-free female mice were obtained from Harlan Sprague Dawley (Madison, Wis.). The mice were weighed (23-27 g) and disseminated candidiasis was induced via tail vein injection of 100 μl of inoculum. AmB and C2′ epiAmB were reconstituted in their deoxycholate form with 1.0 ml of saline5% dextrose. Each animal in the treatment group was given a single 200-μl intravenous (IV) injection of reconstituted AmB and C2′epiAmB 2 h after infection. Doses were calculated in terms of mg of compound per kg of body weight. At 24 h after infection, three animals per experimental condition were killed by CO2 asphyxiation. The kidneys from each animal were removed and homogenized. The homogenate was diluted serially tenfold with […] and plated on SDA. […]

C[C@@H]1[C@H](O)[C@@H](C)/C=C/C=C/C=C/C=C/C=C/C=C/C=C/[C@H](OC2O[C@H](C)[C@@H](O)[C@H](N)[C@H]2O)CC2O[C@](O)(C[C@@H](O)C[C@@H](O)[C@H](O)CC[C@@H](O)C[C@@H](O)CC(=O)O[C@H]1C)C[C@H](O)[C@H]2C(=O)O (stereo partly drawn) [C2′epiAmB, C2′epi amphotericin B]
4 µg/mL: MIC ([9]; Aspergillus fumigatus, single agent) | MIC ([10]; Aspergillus flavus, single agent) | MIC [13]
0.5 mg/L: MIC when added 1 log2 unit lower of azoles' MIC ([4]; with ketoconazole) | MIC when added 1 log2 unit lower of azoles' MIC ([4]; with voriconazole) | MIC when added 1 log2 unit lower of azoles' MIC ([5]; with ketoconazole)
> 2000 nM: Kd ([2]; read-out: KD,chol)
non-toxic: toxicity to primary hREC [1] | toxicity in rats [3]
1 mg/L: MIC when added 1 log2 unit lower of azoles' MIC ([4]; with fluconazole) | MIC when added 1 log2 unit lower of azoles' MIC ([5]; with fluconazole) | MIC when added 1 log2 unit lower of azoles' MIC ([5]; with voriconazole) | MIC when added 1 log2 unit lower of azoles' MIC ([6]; with ketoconazole) | MIC when added 1 log2 unit lower of azoles' MIC ([6]; with voriconazole) | MIC when added 1 log2 unit lower of azoles' MIC ([7]; with fluconazole) | MIC when added 1 log2 unit lower of azoles' MIC ([7]; with ketoconazole) | MIC when added 1 log2 unit lower of azoles' MIC ([7]; with voriconazole) | MIC when added 1 log2 unit lower of azoles' MIC ([8]; with ketoconazole) | MIC when added 1 log2 unit lower of azoles' MIC ([8]; with voriconazole) | MIC when added 1 log2 unit lower of azoles' MIC ([11]; with ketoconazole) | MIC when added 1 log2 unit lower of azoles' MIC ([11]; with voriconazole) | MIC when added 1 log2 unit lower of azoles' MIC ([14]; with voriconazole)
outstanding reductions in fungal burden: fungal burden ([16]; 16 mg/kg dose)
1 µg/mL: MIC ([4]; Lodderomyces parapsilosis, read-out: MIC) | MIC ([5]; Lodderomyces parapsilosis, ATCC22019, single agent, read-out: MIC) | MIC ([6]; single agent) | MIC ([7]; Candida tropicalis, single agent) | MIC ([8]; Nakaseomyces glabratus, read-out: MIC)
0.06 mg/L: MIC when added 1 log2 unit lower of azoles' MIC ([9]; with ketoconazole) | MIC when added 1 log2 unit lower of azoles' MIC ([12]; with ketoconazole) | MIC when added 1 log2 unit lower of azoles' MIC ([13]; with ketoconazole)
>4 mg/L: MIC when added 1 log2 unit lower of azoles' MIC ([9]; with voriconazole) | MIC when added 1 log2 unit lower of azoles' MIC ([10]; with ketoconazole) | MIC when added 1 log2 unit lower of azoles' MIC ([10]; with voriconazole) | MIC when added 1 log2 unit lower of azoles' MIC ([12]; with voriconazole) | MIC when added 1 log2 unit lower of azoles' MIC ([13]; with voriconazole)
150 nM: Kd ([2]; read-out: KD,erg)
> 4 µg/mL: MIC ([12]; Fusarium oxysporum, single agent) | MIC ([13]; Aspergillus fumigatus, read-out: MIC)
2 mg/L: MIC when added 1 log2 unit lower of azoles' MIC ([6]; with fluconazole) | MIC when added 1 log2 unit lower of azoles' MIC ([8]; with fluconazole) | MIC when added 1 log2 unit lower of azoles' MIC ([11]; with fluconazole) | MIC when added 1 log2 unit lower of azoles' MIC ([14]; with ketoconazole) | MIC when added 1 log2 unit lower of azoles' MIC ([15]; with fluconazole) | MIC when added 1 log2 unit lower of azoles' MIC ([15]; with ketoconazole) | MIC when added 1 log2 unit lower of azoles' MIC ([15]; with voriconazole)
dose-dependent efficacy: efficacy ([16]; neutropenic ICR/Swiss mice, deoxycholate complex, single injection 1, 4, 8, or 16 mg/kg)
2 µg/mL: MIC [4] | MIC ([5]; single agent) | MIC ([6]; Pichia kudriavzevii, ATCC6258, single agent, read-out: MIC) | MIC [8] | MIC ([11]; Candida albicans, single agent, read-out: MIC) | MIC ([14]; Aspergillus flavus, ATCC204304, single agent) | MIC ([15]; Pichia kudriavzevii, single agent, read-out: MIC)
